Results as given in patent US11795169B2, “MAP4K4 inhibitors” (IMPERIAL COLLEGE INNOVATIONS LIMITED, priority 2017, dated 2023).

What was measured:
[1] = biological target: human MAP4K4 kinase domain (Homo sapiens (Human), UniProt O95819); assay: MAP4K4 kinase activity, CisBio HTRF Transcreener ADP assay; format: biochemical; details: ATP at Km (10 μM), 0.5 nM kinase domain, 2 h; read-out: MAP4K4
Text: Compounds of the present invention were screened for their inhibitory activity against MAP4K4, versus selected off-target hits found with early members of this chemical series. MAP4K4 kinase activity was monitored using the CisBio HTRF Transcreener ADP assay, acompetitive immunoassay with a reproducible Z′>0.6. In the detection step, endogenous ADP and d2-labeled ADP compete for binding an anti-ADP monoclonal antibody labelled with Eu^3+ cryptate. A ratiometric fluorescent read-out is used at 665 and 620 nm. […] Assays were run in Greiner low volume plates with a final reaction volume of 10 μl. The MAP4K4 inhibition data are provided in Table 33 below for selected compounds of the present invention. The data has been categorised based on the IC50 value of the compound as “A”, “B” or “C”.

[2] = test system: CorV.4U cardiomyocytes (hiPSC-CMs); assay: Protection of CorV.4U cardiomyocytes from H2O2 or menadione (luminescent cell viability assay, human cardiac troponin assay); format: cell-based; details: Homo sapiens, Cardiomyocyte; read-out: EC50, protection of human cardiomyocytes
Text: To substantiate the hypothesis that pharmacological inhibition of MAP4K4 would confer resistance to cell death in human cardiomyocytes, cytoprotection was next assessed using hiPSC-CMs.

Chain of human MAP4K4 kinase domain (O95819 25-289): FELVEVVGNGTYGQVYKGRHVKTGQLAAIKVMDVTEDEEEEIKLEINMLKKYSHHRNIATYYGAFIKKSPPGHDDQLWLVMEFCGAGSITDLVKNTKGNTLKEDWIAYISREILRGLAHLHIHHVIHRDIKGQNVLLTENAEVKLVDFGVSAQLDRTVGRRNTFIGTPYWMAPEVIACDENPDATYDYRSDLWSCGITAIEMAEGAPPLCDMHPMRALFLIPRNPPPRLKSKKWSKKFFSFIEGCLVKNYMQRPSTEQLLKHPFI

IC50 [1] [nM]	SMILES	EC50 [2] [nM]
100 to 1000	C[C@@H](O)COc1ccc(-c2cn(-c3ccccc3)c3c(=O)[nH]cnc23)cc1 [Ex-92]	–
> 1000	C[C@H](O)COc1ccc(-c2cn(-c3ccccc3)c3c(=O)[nH]cnc23)cc1 [Ex-93]	–
> 1000	O=c1[nH]cnc2c(-c3ccc(OCC4CCNC4)cc3)cn(-c3ccccc3)c12 (centres unmarked) [Ex-94, 5-Phenyl-7-[4-(pyrrolidin-3-ylmethoxy)-phenyl]-3,5-dihydro-pyrrolo[3,2-d]pyrimidin-4-one]	–
> 1000	CN1CCC(COc2ccc(-c3cn(-c4ccccc4)c4c(=O)[nH]cnc34)cc2)C1 (centres unmarked) [Ex-95, 7-[4-(1-Methyl-pyrrolidin-3-ylmethoxy)-phenyl]-5-phenyl-3,5-dihydro-pyrrolo[3,2-d]pyrimidin-4-one]	–
> 1000	CCOC(=O)c1cccc(-c2cn(-c3ccccc3)c3c(=O)[nH]cnc23)c1 [Ex-96, 3-(4-Oxo-5-phenyl-4,5-dihydro-3H-pyrrolo[3,2-d]pyrimidin-7-yl)-benzoic acid ethyl ester]	–
≤ 100	O=c1[nH]cnc2c(-c3ccccc3)cn(-c3ccccc3)c12 [Ex-97]	–
> 1000	CCOC(=O)c1ccc(-c2cn(-c3ccccc3)c3c(=O)[nH]cnc23)cc1 [Ex-98]	–
100 to 1000	N#Cc1ccc(-c2cn(-c3ccccc3)c3c(=O)[nH]cnc23)cc1 [Ex-99]	–
100 to 1000	N#Cc1cccc(-c2cn(-c3ccccc3)c3c(=O)[nH]cnc23)c1 [Ex-100]	–
> 1000	O=C(O)c1cccc(-c2cn(-c3ccccc3)c3c(=O)[nH]cnc23)c1 [Ex-101, 3-(4-Oxo-5-phenyl-4,5-dihydro-3H-pyrrolo[3,2-d]pyrimidin-7-yl)-benzoic acid]	–
100 to 1000	O=C(O)c1ccc(-c2cn(-c3ccccc3)c3c(=O)[nH]cnc23)cc1 [Ex-102]	–
–	CC(C)(O)CCOc1ccc(-c2cn(-c3ccccc3)c3nc[nH]c(=O)c23)c(F)c1 [Ex-107, 5-(2-fluoro-4-(3-hydroxy-3-methylbutoxy)phenyl)-7-phenyl-3,7-dihydro-4H-pyrrolo[2,3-d]pyrimidin-4-one]	< 1000
–	CC(C)(O)CCOc1ccc(-c2cn(-c3ccccc3)c3nc[nH]c(=O)c23)cc1F [Ex-123]	< 1000
–	CC(C)(O)CCOc1ccc(-c2cn(-c3ccccc3)c3nc[nH]c(=O)c23)cc1C#N [Ex-128]	< 1000
